# Columns and labels:
# HT-22 cells [1] = assay: Cytotoxicity in HT-22 cells (PrestoBlue); conditions: whole range of concentrations 0.1–100 μM
# Method: The compounds were tested at 5 concentrations (0.1, 1, 10, 50, and 100 μM).
# Mouse Hippocampal Neuronal Cell Line (HT-22) was a generous gift from Dr Bartosz Pomierny of the Department of Biochemical Toxicology, Jagiellonian University Medical College, Krakow, Poland. Cells were cultured in Dulbecco’s modified Eagle’s Medium—high glucose (DMEM, Glutamax Thermo Fisher) supplemented with 10% heat-inactivated fetal bovine serum (Thermo Fisher), 100 IU/mL penicillin (Merck) and 100 μg/mL streptomycin (Merck). Cells were cultured in flasks (area 175 cm^2, Nunc), and incubated at 37 °C, 5% CO2. For the measurement of cell viability and neuroprotective effect against okadaic acid cells were placed in a 96-well culture plate (2 × 10^4 cells per well, Falcon). Before the tests, cells were grown for 24 h in the incubator (37 °C, 5% CO2).
# Cell viability was evaluated using the PrestoBlue reagent (ThermoFisher), according to the manufacturer’s procedures.[87] Following 24 h of incubation with the tested molecule, PrestoBlue reagent was added to a microplate well in an amount equal to one-tenth of the remaining medium volume. The resulting mixture was incubated for 15 min at 37 °C, and the fluorescence intensity (EX 530 nm; EM 580 nm) was measured in the plate reader POLARstar Omega, (BMG Labtech).
# HT-22 cells [2] = assay: Okadaic acid-induced hyperphosphorylation model, cell viability; format: cell-based, mouse; conditions: for increase in cells' viability after okadaic acid: okadaic acid 400 nM 3 h, viability after 24 h
# Method: Thus, it is used in a cell model of hyperphosphorylated tau-induced neurodegeneration.[53],[54] […] The test was performed on the HT-22 cell line treated with okadaic acid at the concentration of 400 nM and the compounds at the concentration of 0.1, 1, and 10 μM. Cell viability was measured by the PrestoBlue cell viability reagent.
# Cell viability was determined by Presto Blue assay after 24 h. (B) Effect of compounds 11, 34, and 36 (0.1, 1, 10 μM) on NO-release (%) in LPS-treated (100 ng/mL) BV-2 cell line. NO-release was measured using a fluorometric assay with 2,3-diaminonaphthalene (DAN). (C, D) Effects of compounds 11 and 36 (0.1, 1, 10 μM) on IL-6 and TNF-α release in LPS-treated (100 ng/mL) BV-2 cell line. The IL-6 and TNF-α levels were measured using LANCE Ultra TR-FRET Detection Kit (PerkinElmer). Statistical analysis was performed using GraphPad Prism 9.0.0. All values are expressed as mean with SD. Differences among groups were evaluated by one-way ANOVA followed by posthoc analysis (Dunnett’s multiple comparison tests) vs. control group (LPS on BV-2 cells and okadaic acid on HT-22 cells) and were considered statistically significant if p < 0.05 (*p < 0.05, **p < 0.01, ***p < 0.001, and ****p < 0.0001).
# HT-22 cells were treated with okadaic acid (Merck): 400 nM for 3 h. After this time, the 10, 1, and 0.1 μM of tested compounds or DMSO were added and incubated in the aseptic condition (37 °C, 5% CO2). Cell viability was determined by Presto Blue assay after 24 h.
# CYP2C9 = CYP2C9 (Homo sapiens, UniProt P11712); conditions: for CYP2C9 activity at 0.1 µM / CYP2C9 activity at 1 µM / CYP2C9 activity at 10 µM / CYP2C9 activity at 25 µM: ± SD
# Chain of CYP2C9 (P11712 whole entry, canonical isoform): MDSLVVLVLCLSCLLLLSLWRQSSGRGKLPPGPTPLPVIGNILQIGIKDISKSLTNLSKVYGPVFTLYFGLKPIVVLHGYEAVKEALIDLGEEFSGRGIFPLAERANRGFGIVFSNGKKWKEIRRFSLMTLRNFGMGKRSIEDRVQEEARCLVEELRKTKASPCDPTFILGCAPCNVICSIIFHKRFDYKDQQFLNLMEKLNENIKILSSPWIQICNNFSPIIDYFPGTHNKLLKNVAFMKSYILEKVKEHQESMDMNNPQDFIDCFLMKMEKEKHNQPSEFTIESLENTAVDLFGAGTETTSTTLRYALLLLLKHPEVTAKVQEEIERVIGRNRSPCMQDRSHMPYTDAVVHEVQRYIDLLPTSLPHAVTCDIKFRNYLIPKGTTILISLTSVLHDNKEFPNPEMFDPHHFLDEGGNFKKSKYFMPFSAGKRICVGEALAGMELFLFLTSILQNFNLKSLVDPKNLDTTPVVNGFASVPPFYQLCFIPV
# From the text: (§1) Interactions with cytochrome enzymes are significant contributors to drug–drug interactions (DDIs), a crucial concern for patients who are on multiple medications. We determined the compounds’ influence on the most important CYP isoforms 3A4, 2D6, and 2C9, using the CYP450 inhibition luminescence assay from Promega (for details see Figures S23–S25 and Table S11 in the SI).
# (§2) All protocols used for the evaluation of drug-like properties (ADME-To parameters) were described in our previous works.[58],[89] Precoated PAMPA Plate System Gentest was obtained from Corning, (Tewksbury, MA, USA). The metabolic stability assay was performed on human liver microsomes (HLMs, Sigma-Aldrich, St. Louis, MO, USA). The assays with microsomes were supported by MetaSite 6.0.1 software (Molecular Discovery Ltd. Hertfordshire, UK). To predict potential drug–drug interactions (DDIs) the influence on CYP3A4, CYP2D6, and CYP2C9 were carried with use of respective P450-Glo kit (Promega, Madison, WI, USA). The luminescence signal and absorbance were measured by using a microplate reader EnSpire PerkinElmer (Waltham, MA, USA). The LC/MS/MS analyses used in PAMPA and the assays with use of HLMs were obtained on Waters ACQUITY TQD system (Waters, Milford, CT, USA). […] Statistical significances and IC50 values were calculated by Graph Pad Prism 9 software. […]
# CYP2D6 = CYP2D6 (Homo sapiens, UniProt P10635); conditions: for CYP2D6 activity at 0.1 µM / CYP2D6 activity at 1 µM / CYP2D6 activity at 10 µM / CYP2D6 activity at 25 µM: ± SD
# Chain of CYP2D6 (P10635 whole entry): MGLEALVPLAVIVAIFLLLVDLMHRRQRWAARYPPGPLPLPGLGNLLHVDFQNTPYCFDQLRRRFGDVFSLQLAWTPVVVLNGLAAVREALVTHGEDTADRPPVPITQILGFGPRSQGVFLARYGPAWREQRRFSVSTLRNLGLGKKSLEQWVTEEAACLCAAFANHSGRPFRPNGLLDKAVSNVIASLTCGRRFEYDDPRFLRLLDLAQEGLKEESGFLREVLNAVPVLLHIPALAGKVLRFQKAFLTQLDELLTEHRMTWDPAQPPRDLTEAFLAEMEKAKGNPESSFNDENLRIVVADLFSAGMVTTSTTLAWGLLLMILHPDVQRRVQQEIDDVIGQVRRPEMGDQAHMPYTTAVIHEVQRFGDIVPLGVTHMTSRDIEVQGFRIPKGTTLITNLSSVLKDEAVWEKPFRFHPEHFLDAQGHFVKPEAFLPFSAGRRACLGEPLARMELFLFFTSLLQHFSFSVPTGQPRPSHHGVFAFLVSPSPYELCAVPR
# From the text: as §1, §2
# CYP3A4 = CYP3A4 (Homo sapiens, UniProt P08684); conditions: for CYP3A4 activity at 0.1 µM / CYP3A4 activity at 1 µM / CYP3A4 activity at 10 µM / CYP3A4 activity at 25 µM: ± SD
# Chain of CYP3A4 (P08684 whole entry): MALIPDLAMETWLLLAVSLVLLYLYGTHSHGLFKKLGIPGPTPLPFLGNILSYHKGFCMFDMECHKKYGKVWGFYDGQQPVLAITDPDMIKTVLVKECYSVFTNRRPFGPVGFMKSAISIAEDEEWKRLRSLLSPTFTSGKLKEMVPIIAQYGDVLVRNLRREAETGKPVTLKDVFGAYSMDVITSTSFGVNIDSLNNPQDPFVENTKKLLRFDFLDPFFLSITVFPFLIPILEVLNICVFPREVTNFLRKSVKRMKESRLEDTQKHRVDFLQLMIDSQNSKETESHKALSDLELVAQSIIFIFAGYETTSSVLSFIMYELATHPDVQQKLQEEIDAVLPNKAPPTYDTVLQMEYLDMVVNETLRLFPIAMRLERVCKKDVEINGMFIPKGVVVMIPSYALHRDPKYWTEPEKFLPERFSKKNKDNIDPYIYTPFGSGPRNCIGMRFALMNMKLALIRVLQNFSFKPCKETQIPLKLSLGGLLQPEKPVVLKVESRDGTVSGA
# From the text: as §1, §2
# GSK-3β [3] = target: T1, GSK-3β (Homo sapiens, UniProt P49841); assay: biochemical
# T1 sequence (P49841 whole entry): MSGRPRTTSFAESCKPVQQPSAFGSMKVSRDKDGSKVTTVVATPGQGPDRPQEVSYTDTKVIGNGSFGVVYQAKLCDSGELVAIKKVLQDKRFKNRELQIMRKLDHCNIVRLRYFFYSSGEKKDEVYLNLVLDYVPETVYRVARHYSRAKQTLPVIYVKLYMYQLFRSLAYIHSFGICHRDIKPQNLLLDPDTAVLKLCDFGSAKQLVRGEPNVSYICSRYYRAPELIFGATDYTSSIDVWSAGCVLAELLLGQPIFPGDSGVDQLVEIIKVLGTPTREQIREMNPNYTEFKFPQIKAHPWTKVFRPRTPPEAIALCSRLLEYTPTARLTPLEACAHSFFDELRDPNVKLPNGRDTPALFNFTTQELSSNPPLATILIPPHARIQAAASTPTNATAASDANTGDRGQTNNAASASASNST
# Method: We selected those kinases with the greatest potential for interaction based on structural homology, as indicated by the ChemPartner panel.
# Figure 7 Kinase selectivity for compound 36. Data are presented as percent of kinases’ activity in the presence of 1 μM of compound 36. Kinases’ panel (CMGC group, human enzymes): CDK1/cyclinB, CDK2/cyclinA, CDK4/cyclinD3, CDK6/cyclinD3, CDK7/cyclinH/MAT1, CDK9/cyclinT1, DYRK1A, DYRK1B, GSK-3α, GSK-3β, JNK2α2, JNK3, MAPK1, MAPK2, SAPK2a(T106M), SAPK2b, SAPK3.
# Selectivity studies were performed at Eurofins in Kinase Enzymatic Radiometric [Km ATP]
# Kinase Profiler Lead Hunter Assay. The percentage of enzymatic activity was measured at the
# concentration of 1 µM of compound 36 in duplicate for 17 selected kinases.
# Table S12. Inhibitory activity of compound 36 against selected kinases.
# *Where n = 2, the value reported here is actually range / √ 2.
# GSK-3β [4] = target: T1, GSK-3β; assay: Kinetics of GSK-3β inhibition (ADP-Glo, varied ATP); format: biochemical; parameters: purchased Promega
# From the text: Each data point was collected in triplicate.
# Kinetics of GSK-3β inhibition by compound 36
# diverse ATP concentrations to determine the mechanism of enzyme - inhibitor interaction. The
# (1 picture or pasted object on this page, not shown here) […]
Compound,increase in cells' viability after okadaic acid (HT-22 cells [2]; compound 10 μM),effect on CYP2C9 (CYP2C9),CYP2C9 activity at 0.1 µM (CYP2C9),CYP2C9 activity at 1 µM (CYP2C9),CYP2C9 activity at 10 µM (CYP2C9),CYP2C9 activity at 25 µM (CYP2C9),CYP2D6 activity at 0.1 µM (CYP2D6),CYP2D6 activity at 1 µM (CYP2D6),CYP2D6 activity at 10 µM (CYP2D6),CYP2D6 activity at 25 µM (CYP2D6),effect on CYP3A4 (CYP3A4),CYP3A4 activity at 0.1 µM (CYP3A4),CYP3A4 activity at 1 µM (CYP3A4),CYP3A4 activity at 10 µM (CYP3A4),CYP3A4 activity at 25 µM (CYP3A4),other results
"O=C(Nc1cc(-c2ccc(-c3ncon3)s2)ccn1)C1CC1 [Compound 36, N-(4-(5-(1,2,4-Oxadiazol-3-yl)thiophen-2-yl)pyridin-2-yl)cyclopropanecarboxamide]",statistically significant effect,inhibitory effect,109.5 ± 17.0 % of control,114.1 ± 14.9 % of control,95.2 ± 7.5 % of control,59.8 ± 11.5 % of control,98.4 ± 10.8 % of control,98.1 ± 12.7 % of control,100.4 ± 20.8 % of control,102.8 ± 15.0 % of control,inhibitory effect,104.8 ± 3.4 % of control,103.6 ± 11.0 % of control,84.6 ± 15.1 % of control,65.3 ± 11.9 % of control,"cell viability in HT-22 cells (HT-22 cells [1]): No significant decrease in cell viability; cell viability after okadaic acid treatment (HT-22 cells [2]; concentration not stated): restored cell viability; interactions with CYP isoform 2C9 (CYP2C9; up to 25 μM): lacked significant interactions; % of enzyme activity at 1μM of 36 ±SD, GSK-3β (GSK-3β [3]; 1 μM, duplicate): 5±1%; inhibition at 1 µM (GSK-3β [3]; read-out: inhibition of GSK-3β): 92%; Ki (GSK-3β [4]): 60.3 nM; type of inhibition (GSK-3β [4]; Lineweaver–Burk and Cornish–Bowden plots, varied ATP): ATP-competitive"
"NC(=O)N1CC=C(c2ccnc(NC(=O)C3CC3)c2)C1 [Compound 11, 3-(2-(Cyclopropanecarboxamido)pyridin-4-yl)-2,5-dihydro-1H-pyrrole-1-carboxamide]",statistically significant effect,inhibitory effect,103.9 ± 7.0 % of control,105.2 ± 7.4 % of control,89.8 ± 4.7 % of control,69.7 ±3.04 % of control,91.2 ± 1.7 % of control,93.0 ± 6.0 % of control,95.2 ± 6.2 % of control,97.4 ± 14.8 % of control,inhibitory effect,103.8 ± 5.9 % of control,100.1 ± 17.6 % of control,94.2 ± 17.5 % of control,76.4 ± 2.9 % of control,increase in cells' viability after okadaic acid (HT-22 cells [2]; compound 1 μM): statistically significant effect; effect on CYP2D6 (CYP2D6; any tested concentration): no effect
